Molecules are shown by their SMILES.

The first test deals with T1, hROMK (hKir1.1) (Homo sapiens, UniProt P48048).
T1 construct: expressed in transfected cells
T1 sequence (P48048 1-391): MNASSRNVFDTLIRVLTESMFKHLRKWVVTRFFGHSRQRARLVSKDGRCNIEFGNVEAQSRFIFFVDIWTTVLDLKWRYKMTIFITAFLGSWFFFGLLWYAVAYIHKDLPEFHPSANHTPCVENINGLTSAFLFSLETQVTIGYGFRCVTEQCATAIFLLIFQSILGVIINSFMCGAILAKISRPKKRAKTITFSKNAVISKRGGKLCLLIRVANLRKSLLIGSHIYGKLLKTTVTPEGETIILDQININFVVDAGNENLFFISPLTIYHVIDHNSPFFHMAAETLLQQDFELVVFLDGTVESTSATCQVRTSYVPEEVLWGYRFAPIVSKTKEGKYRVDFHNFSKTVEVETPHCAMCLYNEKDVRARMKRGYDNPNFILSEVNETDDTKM
As to the kind of experiment: Thallium Flux Assay (ROMK channel functional thallium flux assay, FLIPR-Tetra). Particulars: HEK293 cells stably expressing hROMK; 30 min incubation with compound. The format is cell-based. As to the method:
The following Thallium Flux Assay was performed on each of the final product compounds in the Examples. When the final product of an Example was an HCl salt, the salt was run in the Assay.
HEK293 cells stably expressing hROMK (hKir1.1) were grown at 37° C. in a 10% CO2 humidified incubator in complete growth media: Dulbecco's Modified Eagle Medium supplemented with non-essential amino acids, Penicillin/Streptomycin/Glutamine, G418 and FBS. At >80% confluency, aspirate the media from the flask and rinse with 10 mL Calcium/Magnesium-free PBS. Add 5 mL of 1× trypsin (prepared in Ca/Mg Free PBS) to T-225 flask and return flask to 37° C./CO2 incubator for 2-3 minutes. To dislodge the cell, gently bang the side of the flask with your hand. Triturate the cells completely and then transfer the cells to 25 mL complete media. Centrifuge at 1,500 rpm for 6 min followed by resuspension in complete growth media and determine cell concentration. For typical re-seeding, 4E6 cells/T-225 flask will attain >80% confluency in 4 days. Under ideal growth conditions and appropriate tissue culture practices, this cell line is stable for 40-45 passages.
FluxOR Kit Components (Invitrogen F10017)
• FluxOR™ Reagent (Component A) • FluxOR™ Assay Buffer (Component B)—10× Concentrate • PowerLoad™ Concentrate (Component C)—100× Concentrate • Probenecid (Component D)—Lyophilized sample is kept at −20° C. Water soluble, 100× after solubilization in 1 mL water. Store at 4° C. • FluxOR™ Chloride-free Buffer (Component E)—5× Concentrate • Potassium sulfate (K2SO4) Concentrate (Component F)—125 mM in water. Store at 4° C. • Thallium sulfate (Tl2SO4) Concentrate (Component G)—50 mM in water. Store at 4° C. • DMSO (dimethyl sulfoxide, Component H)—1 mL (100%) Reagent Preparation: FluxOR Working Solutions • 1000× FluxOR™ Reagent: Reconstitute a vial of component A in 100 μl DMSO; Mix well; Store 10 μl aliquots at −20° C. • 1× FluxOR™ Assay Buffer: Dilute Component B 10-fold with water; Adjust pH to 7.4 with Hepes/NaOH; Filter and store at 4° C. • Probenecid/Assay Buffer: 100 mL of 1× FluxOR™ Assay Buffer; 1 mL of reconstituted component D; Store at 4° C. • Loading Buffer (per microplate): 10 μl 1000× FluxOR™ Reagent; 100 μl component C; 10 mL Probenecid/Assay Buffer • Compound Buffer (per microplate): 20 mL Probenecid/Assay Buffer; 0.3 mM ouabain (10 mM ouabain in water can be stored in amber bottle/aluminum foil at room temperature); Test compound • 1× FluxOR™ Chloride-Free Buffer: Prepare 1× working solution in water. Can be stored at room temperature • Stimulant Buffer (prepared at 5× final concentration in 1× FluxOR™ Chloride-Free Buffer): 7.5 mM Thallium sulfate and 0.75 mM Potassium sulfate (to give a final assay concentration of 3 mM Thallium/0.3 mM Potassium). Store at 4° C. when not in use. Assay Protocol—
The ROMK channel functional thallium flux assay is performed in 384 wells, using the FLIPR-Tetra instrument. HEK-hKir1.1 cells are seeded in Poly-D-Lysine microplates and kept in a 37° C.-10% CO2 incubator overnight. On the day of the experiment, the growth media is replaced with the FluxOR™ reagent loading buffer and incubated, protected from light, at ambient temperature (23-25° C.) for 90 min. The loading buffer is replaced with assay buffer±test compound followed by 30 min incubation at ambient temperature, where the Thallium/Potassium stimulant is added to the microplate.
1. Seed HEK-hKir1.1 cells (50 μl at 20,000 cells/well) in 384-well PDL coated Microplates
2. Allow cells to adhere overnight in humidified 37° C./10% CO2 incubator
3. Completely remove cell growth media from microplate and replace with 25 μl loading buffer
4. Incubate Microplate at room temperature, protected form light, for 90 min
5. Remove loading buffer and replace with 25 μl 1× Assay Buffer±test compound.
6. Incubate microplate at room temperature, protected from light, for 30 min
7. At FLIPR-Tetra 384: Add stimulant (Thallium/Potassium) solution to microplate and monitor fluorescence. […]
Usually IC50 stands for the concentration at which inhibition is half-maximal. On to `Cc1c(C(O)CN2CCc3nc(-c4ccc(C#N)cn4)ncc3C2)ccc2c1COC2=O` (stereo not shown) [Example 40, 6-{6-[2-hydroxy-2-(4-methyl-1-oxo-1,3-dihydro-2-benzofuran-5-yl)ethyl]-5,6,7,8-tetrahydropyrido[4,3-d]pyrimidin-2-yl}pyridine-3-carbonitrile], for which the IC50 worked out at 155 nM.

In the case of `CC1=C(N2CC3=C(CCN(C[C@H](O)c4ccc5c(c4C)COC5=O)CC3)C2=O)COC1=O` [Example 31, (R)-6-(2-Hydroxy-2-(4-methyl-1-oxo-1,3-dihydroisobenzofuran-5-yl)ethyl)-2-(4-methyl-5-oxo-2,5-dihydrofuran-3-yl)-2,3,5,6,7,8-hexahydropyrrolo[3,4-d]azepin-1(4H)-one], the IC50 is 64 nM.

As to `COc1cc(-c2ncc3c(n2)CCN(CCc2ccc4c(c2C)COC4=O)C3)ccc1C#N` [Example 11, 2-methoxy-4-{6-[2-(4-methyl-1-oxo-1,3-dihydro-2-benzofuran-5-yl)ethyl]-5,6,7,8-tetrahydropyrido[4,3-d]pyrimidin-2-yl}benzonitrile], the IC50 was 83.8 nM.

As for `Cc1c([C@@H](O)CN2CCn3c(-c4ccc5c(c4)C[C@H](C)OC5=O)cnc3C2)ccc2c1COC2=O` [Example 44, (3S)-6-{7-[(2R)-2-hydroxy-2-(4-methyl-1-oxo-1,3-dihydro-2-benzofuran-5-yl)ethyl]-5,6,7,8-tetrahydroimidazo[1,2-a]pyrazin-3-yl}-3-methyl-3,4-dihydro-1H-isochromen-1-one], the IC50 was 301 nM. `Cc1cc(C#N)ccc1-c1ncc2c(n1)CCN(CC(O)c1ccc3c(c1C)COC3=O)C2` (stereo not shown) [Example 39, 4-{6-[2-hydroxy-2-(4-methyl-1-oxo-1,3-dihydro-2-benzofuran-5-yl)ethyl]-5,6,7,8-tetrahydropyrido[4,3-d]pyrimidin-2-yl}-3-methylbenzonitrile]: the IC50 worked out at 337 nM. On the same count and under the same terms, the value for `Cc1c(CCN2CCc3c(cnn3-c3ccc(C#N)c(F)c3)C2)ccc2c1COC2=O` [Example 30, 2-fluoro-4-(5-(2-(4-methyl-1-oxo-1,3-dihydroisobenzofuran-5-yl)ethyl)-4,5,6,7-tetrahydro-1H-pyrazolo[4,3-c]pyridin-1-yl)benzonitrile] was 27.5 nM. On the same count and under the same terms, the value for `C[C@H]1Cc2cc(CCN3CCn4cc(-c5ccc6c(c5)COC6=O)nc4C3)ccc2C(=O)O1` [Example 19, (3S)-3-methyl-6-{2-[2-(1-oxo-1,3-dihydro-2-benzofuran-5-yl)-5,6-dihydroimidazo[1,2-a]pyrazin-7(8H)-yl]ethyl}-3,4-dihydro-1H-isochromen-1-one] was 198 nM; that for `Cc1c(CCN2CCc3nc(-c4ccc(C#N)cn4)ncc3C2)ccc2c1COC2=O` [Example 21] was 449 nM.

On to `Cc1c(CCN2CCn3cc(-c4ccc5c(c4)CCOC5=O)nc3C2)ccc2c1COC2=O` [Example 17, 6-{7-[2-(4-methyl-1-oxo-1,3-dihydro-2-benzofuran-5-yl)ethyl]-5,6,7,8-tetrahydroimidazo[1,2-a]pyrazin-2-yl}-3,4-dihydro-1H-isochromen-1-one], for which the IC50 was 654 nM. The same measure, in the same setting: the figure for `Cc1c(CCN2CCc3nc(-c4ccc(F)c(C#N)c4)ncc3C2)ccc2c1COC2=O` [Example 22] is 441 nM. On the same count and under the same terms, the value for `Cc1c(CCN2CCn3c(nn(-c4ccc5c(c4)COC5=O)c3=O)C2)ccc2c1COC2=O` [Example 25, 7-[2-(4-methyl-1-oxo-1,3-dihydro-2-benzofuran-5-yl)ethyl]-2-(1-oxo-1,3-dihydro-2-benzofuran-5-yl)-5,6,7,8-tetrahydro[1,2,4]triazolo[4,3-a]pyrazin-3(2H)-one] was 92.8 nM; that for `COc1cc(-c2cn3c(n2)CN(CC(O)c2ccc4c(c2C)COC4=O)CC3)ccc1C#N` (stereo not shown) [Example 35, 4-{7-[2-hydroxy-2-(4-methyl-1-oxo-1,3-dihydro-2-benzofuran-5-yl)ethyl]-5,6,7,8-tetrahydroimidazo[1,2-a]pyrazin-2-yl}-2-methoxybenzonitrile] was 154 nM; that for `Cc1cc(C#N)ccc1C1C[C@H]2CN(C[C@H](O)c3ccc4c(c3C)COC4=O)CCN2C1` (stereo partly drawn) [Example 45, 4-{(8aS)-2-[(2R)-2-hydroxy-2-(4-methyl-1-oxo-1,3-dihydro-2-benzofuran-5-yl)ethyl]octahydropyrrolo[1,2-a]pyrazin-7-yl}-3-methylbenzonitrile] was 131 nM. On the same count and under the same terms, the figure for `Cc1c(C(O)CN2CCn3c(nn(-c4ccc(C#N)c(F)c4)c3=O)C2)ccc2c1COC2=O` (stereo not shown) [Example 36, 2-fluoro-4-{7-[2-hydroxy-2-(4-methyl-1-oxo-1,3-dihydro-2-benzofuran-5-yl)ethyl]-3-oxo-5,6,7,8-tetrahydro[1,2,4]triazolo[4,3-a]pyrazin-2(3H)-yl}benzonitrile] is 163 nM; for `O=C1OCCc2cc(CCN3CCn4cc(-c5ccc6c(c5)COC6=O)nc4C3)ccc21` [Example 20, 6-{2-[2-(1-oxo-1,3-dihydro-2-benzofuran-5-yl)-5,6-dihydroimidazo[1,2-a]pyrazin-7(8H)-yl]ethyl}-3,4-dihydro-1H-isochromen-1-one] it is 192 nM.

On to `Cc1c(C(O)CN2CCc3nc(-c4ccc(C#N)cc4F)ncc3C2)ccc2c1COC2=O` (stereo not shown) [Example 41, 3-fluoro-4-{6-[2-hydroxy-2-(4-methyl-1-oxo-1,3-dihydro-2-benzofuran-5-yl)ethyl]-5,6,7,8-tetrahydropyrido[4,3-d]pyrimidin-2-yl}benzonitrile], for which the IC50 came out at 463 nM. On the same count and under the same terms, the value for `Cc1c([C@@H](O)CN2CCc3c(cnn3-c3ccc(C#N)cn3)C2)ccc2c1COC2=O` [Example 43, 6-{5-[(2R)-2-hydroxy-2-(4-methyl-1-oxo-1,3-dihydro-2-benzofuran-5-yl)ethyl]-4,5,6,7-tetrahydro-1H-pyrazolo[4,3-c]pyridin-1-yl}pyridine-3-carbonitrile] was 592 nM.

In the next test the target is T2, ROMK (Kir1.1) (Homo sapiens, UniProt P48048).
T2 sequence (P48048 1-391): T1 sequence (P48048 1-391)
Description: 86Rb+ Efflux Assay, described in WO2013/062892 at pages 79-80. Format: cell-based. Particulars: values marked "(Rb)" in Table 10. From the text: The data for Examples 2, 3, 4, 8, 9, 10, 15 and 32 were obtained using the ^86Rb^+ Efflux Assay, described in WO2013/062892 at pages 79-80.
Turning to `N#Cc1ccc(-c2ncc3c(n2)CCN(CCc2ccc4c(c2)COC4=O)C3)cc1` [Example 2, 4-{6-[2-(1-oxo-1,3-dihydro-2-benzofuran-5-yl)ethyl]-5,6,7,8-tetrahydropyrido[4,3-d]pyrimidin-2-yl}benzonitrile], 306 nM corresponded to half-maximal inhibition (IC50).

`Cc1c(CCN2CCc3nc(-c4ccc5c(c4)COC5=O)ncc3C2)ccc2c1COC2=O` [Example 9, 4-methyl-5-{2-[2-(1-oxo-1,3-dihydro-2-benzofuran-5-yl)-7,8-dihydropyrido[4,3-d]pyrimidin-6(5H)-yl]ethyl}-2-benzofuran-1(3H)-one] displayed a half-inhibitory concentration (IC50) of 96.1 nM.

The values above are taken from patent US10000484B2, “Inhibitors of the renal outer medullary potassim channel” (MERCK SHARP & DOHME CORP., priority 2013, dated 2018).
